What was measured:
[1] = molecular target: GABA-A receptor; anion channel; format: functional, tissue-based, Bos taurus, Brain
[2] = molecular target: GABA-A receptor; anion channel; format: organism-based, Bos taurus, Brain

IC50 [1] [nM] | IC50 [2] [nM] | Compound
3 | 43 | C[C@]12CC(=O)C3C(CC[C@@H]4C[C@H](O)CC[C@]34C)C1CC(=N)N2 (stereo partly drawn)
– | 280 | N=c1ccc(-c2ccc(Cl)cc2)nn1CCCC(=O)O
– | 10600 | Cc1cc(-c2ccccc2)c(=N)n(CCCC(=O)O)n1
– | 2300 | Cc1cc(-c2ccccc2)nn(CCCC(=O)O)c1=N
– | 1200 | N=c1ccc(-c2ccccc2)nn1CCCC(=O)O
– | 2370 | N=c1ccc(-c2ccsc2)nn1CCCC(=O)O
– | 1000 | Cc1cc(-c2ccccc2)nn(Cc2cc(O)no2)c1=N
80 | 1200 | N=c1ccc(-c2ccc(Cl)cc2)nn1Cc1cc(O)no1
0.76 | 17 | N=c1ccc(-c2ccc3c(c2)OCO3)nn1Cc1cc(O)ns1
1000 | 6600 | Cc1cc(-c2ccccc2)c(=N)n(Cc2cc(O)ns2)n1
190 | 120 | N=c1c2ccccc2c(-c2ccccc2)nn1Cc1cc(O)no1
25 | 160 | N=c1c2ccccc2c(-c2ccccc2)nn1Cc1cc(O)ns1
– | 50 | N=c1ccc(-c2ccc3c(c2)OCO3)nn1CCCC(=O)O
6 | 75 | N=c1ccc(-c2ccc3c(c2)OCO3)nn1Cc1cc(O)no1
29 | 150 | N=c1ccc(-c2ccc(Cl)cc2)nn1Cc1cc(O)ns1

Compound | IC50 [1] [nM] | IC50 [2] [nM]
N=c1ccc(-c2ccsc2)nn1Cc1cc(O)no1 | – | 1600
O=C1OC=C2CCCNCC12 (stereo not drawn) | – | 56000
NCc1cc(O)ns1 | – | 19
NCc1cc(=O)[nH]o1 [MUSCIMOL] | 135 | 2

Source: ChEMBL document CHEMBL1125342, “Condensation of muscimol or thiomuscimol with aminopyridazines yields GABA-A antagonists” (J Med Chem, 1992)
